Laboratory results from US9717803B2, “Enzymatic conjugation of polypeptides” (Innate Pharma, priority 2011, dated 2017).
Entries after “also recorded” stand apart in the source; their conditions may differ. Where two headings read alike, the source gives them in different places.

Legend:
[1] = molecular target: T1, bacterial transglutaminase (BTG) (Streptomyces mobaraensis, UniProt P81453); format: biochemical; conditions: for BTG coupling, result in words: chADC1 N297S and chSGN35 N297S, 18.5 h
T1 construct: purchased Zedira, Darmstadt, Germany
T1 sequence (P81453 77-407): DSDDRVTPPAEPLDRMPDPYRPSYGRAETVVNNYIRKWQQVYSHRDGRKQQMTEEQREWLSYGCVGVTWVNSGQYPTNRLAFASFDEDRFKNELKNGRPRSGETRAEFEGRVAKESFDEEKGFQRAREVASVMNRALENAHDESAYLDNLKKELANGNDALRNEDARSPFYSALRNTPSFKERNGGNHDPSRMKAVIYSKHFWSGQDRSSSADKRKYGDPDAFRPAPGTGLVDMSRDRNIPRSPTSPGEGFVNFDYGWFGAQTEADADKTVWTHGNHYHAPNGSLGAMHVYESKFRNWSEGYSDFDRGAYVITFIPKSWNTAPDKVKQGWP

[2] = cited from earlier work
[3] = Solubility in water / aqueous buffer; format: physicochemical; conditions: aqueous buffer containing a maximum of 10% DMSO
[4] = chADC1 N297S, 80 eq ligand, 6 U/ml BTG, 1 mg/ml mAb, 37° C.
[5] = PNGaseF-deglycosylated chADC1, 6 U/mL BTG (optimized: 80 eq ligand, 1 mg/ml mAb, 37° C.)
[6] = PNGaseF-deglycosylated chADC1, 80 eq ligand, 6 U/ml BTG, 1 mg/ml mAb, 37° C.
[7] = PNGaseF-deglycosylated chADC1, standard conditions, 1 U/mL BTG
[8] = PNGaseF-deglycosylated chCE7, 80 eq ligand, 6 U/ml BTG, 1 mg/ml mAb, 37° C.
[9] = chADC1 N297Q (two acceptor glutamines per heavy chain), 80 eq ligand, 6 U/ml BTG, 1 mg/ml mAb, 37° C.

Compound: [N-]=[N+]=NCCOCCOCCOCCOCCN [Azide-PEG4-NH2, reference compound]
- BTG coupling to two glutamines per heavy chain, result in words ([1]; chADC1 N297Q, 80 eq ligand, 6 U/ml BTG, 1 mg/ml mAb, 37° C.): complete coupling to two glutamines on all heavy chains
- BTG coupling to heavy chain, result in words [1, 4]: quantitative

Compound: NCCCCCNC(=O)CSC1CC(=O)N(CCNC(=O)CN2CCN(CC(=O)O)CCN(CC(=O)O)CCN(CC(=O)O)CC2)C1=O (stereo not shown) [C2-DOTA, 2,2′,2″-(10-(2-((2-(3-((2-((5-aminopentyl)amino)-2-oxoethyl)thio)-2,5-dioxopyrrolidin-1-yl)ethyl)-amino)-2-oxoethyl)-1,4,7,10-tetraazacyclododecane-1,4,7-triyl)triacetic acid]
- BTG coupling to heavy chain, result in words [1, 5]: minor peak modified chADC1 heavy chain
- heavy chain with one linker coupled (LC-MS peak) [1, 6]: 30%
- unmodified heavy chain (LC-MS peak) [1, 6]: 70%
- BTG coupling to heavy chain, result in words [1, 7]: only unmodified chADC1 heavy chain
- BTG coupling to heavy chain, result in words [1, 4]: quantitative coupling could not be accomplished

Compound: NCCCCCNC(=O)CCCCCSC1CC(=O)N(CCNC(=O)CN2CCN(CC(=O)O)CCN(CC(=O)O)CCN(CC(=O)O)CC2)C1=O (stereo not shown) [C6-DOTA, 2,2′,2″-(10-(2-((2-(3-((6-((5-aminopentyl)amino)-6-oxohexyl)thio)-2,5-dioxopyrrolidin-1-yl)ethyl)-amino)-2-oxoethyl)-1,4,7,10-tetraazacyclododecane-1,4,7-triyl)triacetic acid]
- unmodified heavy chain (LC-MS peak) [1, 6]: 30%
- BTG coupling to heavy chain, result in words [1, 4]: near quantitative coupling

Compound: CC[C@@]1(O)C(=O)OCc2c1cc1n(c2=O)Cc2cc3ccccc3nc2-1 [CPT, camptothecin]
- solubility in water [2]: about 2.5 μg/ml

Compound: CC(=O)O[C@H]1C(=O)[C@@]2(C)[C@H]([C@H](OC(=O)c3ccccc3)[C@]3(O)C[C@H](OC(=O)[C@H](O)[C@@H](NC(=O)c4ccccc4)c4ccccc4)C(C)=C1C3(C)C)[C@]1(OC(C)=O)CO[C@@H]1C[C@@H]2O [PTX, paclitaxel]
- solubility in water [2]: less than 1 μg/ml

Compound: NCCCCCNC(=O)c1ccc(-c2c3ccc(=O)cc-3oc3cc(O)ccc23)c(C(=O)O)c1 [cadaverin-fluorescein linker, reference compound]
- BTG coupling to heavy chain, result in words [1, 5]: coupling could not be achieved; also recorded: Only partial modification

Compound: CN(C)c1cccc2c(S(=O)(=O)NCCCCCN)cccc12 [dansyl-cadaverin, reference compound]
- solubility in aqueous buffer, in words [3]: limited solubility
- BTG coupling to heavy chain, result in words [1, 5]: modification of all heavy chains
- BTG coupling to heavy chain, result in words [1, 7]: did not go to completion

Compound: biotin-cadaverin [reference compound]
- BTG coupling to heavy chain, result in words [1, 5]: modification of all heavy chains
- BTG coupling to heavy chain, result in words [1, 7]: did not go to completion

Compound: maleimide-valine-citrullin-PAB-MMAF+6C Thiol Linker [MMAF linker]
- heavy chain with one linker coupled (LC-MS peak) [1, 6]: 30%
- unmodified heavy chain (LC-MS peak) [1, 6]: 70%
- heavy chain with one linker coupled (LC-MS peak) [1, 8]: 19%
- unmodified heavy chain (LC-MS peak) [1, 8]: 81%
- BTG coupling with prolonged incubation, result in words ([1]; PNGaseF-deglycosylated mAb, 160 eq substrate, 6 U/mL BTGase, 40 h or 110 h, 37° C.): does not push the reaction to completion
- heavy chain with one MMAF linker (LC-MS peak) [1, 9]: 75%
- heavy chain with two MMAF linkers (LC-MS peak) [1, 9]: 25%
- BTG coupling, result in words ([1]; 40 eq linker, 4 U/mL or 2 U/mL BTG, 37° C.): quantitatively functionalized
- BTG coupling, result in words ([1]; 80 eq linker, 4 U/ml or 2 U/ml BTG, 37° C.): complete functionalization
- BTG coupling, result in words ([1]; below 40 eq linker, 4 U/mL or 2 U/mL BTG, 37° C.): no longer quantitative
- heavy chain with one linker coupled (LC-MS peak) [1, 4]: greater than 90%
